Read-outs that look alike come from different tables or passages of the source.

For data set [1], the system named is HepG-2 cells. Nature of the data set: MTT cytotoxicity assay, HepG-2. As to conditions: Homo sapiens. The class given is cell-based.
The test system of another data set is MCF-7 cells. Nature of the data set: MTT cytotoxicity assay, MCF-7. As to conditions: Homo sapiens.
For another data set, the system named is HCT-116 cells. The experiment in a line: MTT cytotoxicity assay, HCT-116. As to conditions: Homo sapiens.
The subject of the next data set is HeLa cells. The experiment in a line: MTT cytotoxicity assay, HeLa. The note with it: Homo sapiens.
Data set [2] concerns HepG-2, HCT-116, MCF-7 and HeLa cells. The experiment in a line: MTT cytotoxicity assay, all four cancer cell lines together. The data set is classed as cell-based. The note with it: for Cytotoxic activity category, all four tested cancer cell lines: category in words by IC50, HepG-2, HCT-116, MCF-7, HeLa.
The target in data set [3] is EGFR, VEGFR-2, and Topo II. Nature of the data set: In vitro enzyme inhibition assays, three enzymes together. As to conditions: read-out: IC50 range on EGFR, VEGFR-2, and Topo II; range over the three enzymes. The class given is biochemical.
Data set [4] deals with HepG-2 cells. Nature of the data set: Flow cytometry cell cycle analysis. The class given is cell-based. As to conditions: HepG-2, PI staining.
For data set [5], the system named is HepG-2 cells. Nature of the data set: Annexin V-FITC/PI apoptosis assay. The class given is cell-based. As to conditions: HepG-2, 24 h.
The target in another data set is EGFR (Homo sapiens, UniProt P00533). Nature of the data set: biochemical. The class given is biochemical.
Sequence of EGFR (P00533 25-1210): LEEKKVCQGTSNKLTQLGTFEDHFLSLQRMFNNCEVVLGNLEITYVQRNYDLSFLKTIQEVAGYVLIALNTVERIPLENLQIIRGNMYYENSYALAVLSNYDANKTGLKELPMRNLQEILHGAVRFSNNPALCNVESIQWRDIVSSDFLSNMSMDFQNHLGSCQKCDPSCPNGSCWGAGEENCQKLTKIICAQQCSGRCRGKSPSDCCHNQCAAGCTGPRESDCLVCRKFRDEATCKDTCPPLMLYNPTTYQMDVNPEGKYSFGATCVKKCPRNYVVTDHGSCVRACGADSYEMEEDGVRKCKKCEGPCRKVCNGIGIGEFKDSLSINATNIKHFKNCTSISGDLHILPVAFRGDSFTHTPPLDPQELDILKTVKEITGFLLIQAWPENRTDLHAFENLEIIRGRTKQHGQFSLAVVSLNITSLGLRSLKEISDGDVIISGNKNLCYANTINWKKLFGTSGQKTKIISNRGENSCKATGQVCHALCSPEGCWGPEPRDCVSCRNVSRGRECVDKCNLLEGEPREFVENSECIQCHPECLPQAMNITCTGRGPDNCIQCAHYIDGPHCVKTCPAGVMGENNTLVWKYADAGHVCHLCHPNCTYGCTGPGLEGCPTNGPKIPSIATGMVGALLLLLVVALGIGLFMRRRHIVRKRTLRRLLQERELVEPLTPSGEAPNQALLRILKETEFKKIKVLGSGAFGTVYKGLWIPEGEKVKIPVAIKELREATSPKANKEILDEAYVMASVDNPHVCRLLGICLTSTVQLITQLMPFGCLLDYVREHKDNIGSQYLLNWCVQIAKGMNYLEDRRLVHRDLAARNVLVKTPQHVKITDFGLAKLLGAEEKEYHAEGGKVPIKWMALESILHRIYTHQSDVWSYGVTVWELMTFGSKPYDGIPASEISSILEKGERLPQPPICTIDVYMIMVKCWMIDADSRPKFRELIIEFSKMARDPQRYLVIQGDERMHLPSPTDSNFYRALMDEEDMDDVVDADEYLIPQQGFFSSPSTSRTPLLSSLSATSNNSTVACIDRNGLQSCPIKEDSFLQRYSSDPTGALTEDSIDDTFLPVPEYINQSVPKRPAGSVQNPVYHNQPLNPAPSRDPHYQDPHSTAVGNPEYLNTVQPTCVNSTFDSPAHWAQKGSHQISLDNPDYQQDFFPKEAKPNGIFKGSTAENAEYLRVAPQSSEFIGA
A further data set has as its system WI-38 cell line. Nature of the data set: In vitro cytotoxicity against normal WI-38 cell line. The class given is cell-based. The note with it: Homo sapiens, WI-38, read-out: Normal cells IC50 WI-38.
Data set [6] has as its target Topo II. Nature of the data set: In vitro Topo II enzyme inhibition assay. The class given is biochemical. The note with it: read-out: Topo II IC50; mean ± SD.
Another data set concerns the target VEGFR-2 (Homo sapiens, UniProt P35968). Nature of the data set: In vitro VEGFR-2 enzyme inhibition assay. The class given is biochemical.
The subject of the next data set is Topo IIB. The note with it: read-out: Topo IIB IC50; cited from earlier work.
Data set [7] deals with Topoisomerase II (Topo II). The note with it: read-out: Topo II IC50; cited from earlier work.
The test system of data set [8] is Topo II. The note with it: read-out: Topo II IC50; cited from earlier work.
Setting [9] is: HepG2, 48 h, read-out: In vitro Cytotoxicity IC50 HepG-2.
Where [10] appears, read: HepG2, read-out: Cytotoxic activity category, HepG-2.
Where [11] appears, read: MCF7, 48 h, read-out: In vitro Cytotoxicity IC50 MCF-7.
Where [12] appears, read: MCF7, read-out: Cytotoxic activity category, MCF-7.
[13] abbreviates: HCT-116, 48 h, read-out: In vitro Cytotoxicity IC50 HCT-116.
The mark [14] stands for this setting: HCT-116, read-out: Cytotoxic activity category, HCT-116.
[15] abbreviates: 48 h, read-out: In vitro Cytotoxicity IC50 HeLa.
Where [16] appears, read: read-out: Cytotoxic activity category, HeLa.
Where [17] appears, read: read-out: Cytotoxic activity category, all four tested cancer cell lines.
Setting [18] is: read-out: IC50 range over the four cancer cell lines.

Sequence of VEGFR-2 (P35968 20-1356): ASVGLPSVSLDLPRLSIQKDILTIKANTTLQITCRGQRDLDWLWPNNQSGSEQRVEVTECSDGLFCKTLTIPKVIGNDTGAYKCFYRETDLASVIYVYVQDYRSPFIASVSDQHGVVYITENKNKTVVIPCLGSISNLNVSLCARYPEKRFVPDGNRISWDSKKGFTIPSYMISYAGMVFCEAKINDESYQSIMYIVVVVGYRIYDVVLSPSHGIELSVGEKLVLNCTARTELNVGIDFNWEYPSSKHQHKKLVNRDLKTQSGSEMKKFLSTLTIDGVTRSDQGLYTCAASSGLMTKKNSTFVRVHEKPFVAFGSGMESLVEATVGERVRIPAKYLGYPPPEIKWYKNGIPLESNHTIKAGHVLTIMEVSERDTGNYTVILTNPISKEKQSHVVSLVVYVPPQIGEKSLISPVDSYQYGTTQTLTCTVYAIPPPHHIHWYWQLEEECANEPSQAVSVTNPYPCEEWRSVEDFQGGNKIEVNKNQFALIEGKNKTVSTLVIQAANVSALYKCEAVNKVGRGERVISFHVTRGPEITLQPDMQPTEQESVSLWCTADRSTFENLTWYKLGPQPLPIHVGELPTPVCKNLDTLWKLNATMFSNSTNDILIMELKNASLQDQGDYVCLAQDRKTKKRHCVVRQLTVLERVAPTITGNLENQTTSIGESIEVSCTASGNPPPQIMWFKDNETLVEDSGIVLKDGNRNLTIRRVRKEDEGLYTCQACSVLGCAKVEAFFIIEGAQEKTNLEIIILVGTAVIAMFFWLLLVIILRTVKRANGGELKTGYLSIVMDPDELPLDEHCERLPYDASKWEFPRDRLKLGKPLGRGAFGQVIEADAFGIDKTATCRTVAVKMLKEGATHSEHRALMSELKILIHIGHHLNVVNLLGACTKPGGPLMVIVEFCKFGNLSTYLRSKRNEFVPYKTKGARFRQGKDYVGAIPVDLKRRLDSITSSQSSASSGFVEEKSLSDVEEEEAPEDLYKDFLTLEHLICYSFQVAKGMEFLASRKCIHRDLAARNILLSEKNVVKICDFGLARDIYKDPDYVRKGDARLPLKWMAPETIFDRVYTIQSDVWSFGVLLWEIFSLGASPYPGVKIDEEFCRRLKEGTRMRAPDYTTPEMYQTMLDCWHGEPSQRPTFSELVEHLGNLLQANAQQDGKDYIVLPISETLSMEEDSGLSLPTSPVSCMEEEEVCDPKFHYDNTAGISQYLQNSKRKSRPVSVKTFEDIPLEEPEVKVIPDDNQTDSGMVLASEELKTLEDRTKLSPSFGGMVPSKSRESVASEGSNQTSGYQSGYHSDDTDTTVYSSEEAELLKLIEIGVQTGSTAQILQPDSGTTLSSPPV

Consider `COc1ccc(/C=N/NC(=O)c2nnn(Cc3nc4ccccc4[nH]3)c2C)cc1OC` [Compound 6e, (E)-1-[(1H-Benzo[d]imidazol-2-yl)methyl]-N′-(3,4-dimethoxybenzylidene)-5-methyl-1H-1,2,3-triazole-4-carbohydrazide], for which the IC50 in the data set on HepG-2 cells [1] (setting [9]) was 33.6 ± 2.3 µM; in the data set on HepG-2 cells [1] (setting [10]), 21 to 50 µM; in the data set with MCF-7 cells (setting [11]), 23.7 ± 1.9 µM; in the data set on MCF-7 cells (setting [12]) it was 21 to 50 µM; in the data set with HCT-116 cells (setting [13]), 19.7 ± 1.7 µM; in the data set on HCT-116 cells (setting [14]) it was 11 to 20 µM. Moreover, the IC50 with HeLa cells (setting [15]) is 29.1 ± 2.3 µM; with HeLa cells (setting [16]), 21 to 50 µM.
As for `Cc1c(C(=O)NNC(=O)Nc2cccc3ccccc23)nnn1Cc1nc2ccccc2[nH]1` [Compound 5c, 2-{1-[(1h-Benzo[d]imidazol-2-yl)methyl]-5-methyl-1H-1,2,3-triazole-4-carbonyl}-N-(naphthalen-1-yl)hydrazinecarboxamide], the IC50 turned out to be 67.4 ± 3.5 µM with HepG-2 cells [1] (setting [9]), 45.4 ± 2.9 µM in the data set on MCF-7 cells (setting [11]), 59.2 ± 3.3 µM in the data set on HCT-116 cells (setting [13]) and 27.6 ± 2 µM in the data set on HeLa cells (setting [15]). Moreover, the “Cytotoxic activity category, all four tested cancer cell lines” value in data set [2] was “weak to moderate”.
Consider `Cc1ccc(NC(=S)NNC(=O)c2nnn(Cc3nc4ccccc4[nH]3)c2C)cc1` [Compound 5f, 2-{1-[(1h-Benzo[d]imidazol-2-yl)methyl]-5-methyl-1H-1,2,3-triazole-4-carbonyl}-N-(p-tolyl)hydrazinecarbothioamide], for which the IC50 came out at 72.7 ± 3.8 µM in the data set with HepG-2 cells [1] (setting [9]), 64.1 ± 3.3 µM with MCF-7 cells (setting [11]), 68.5 ± 3.7 µM with HCT-116 cells (setting [13]) and 58.1 ± 3.1 µM with HeLa cells (setting [15]).
In the case of `Cc1c(C(=O)NNC(=O)Nc2ccccc2)nnn1Cc1nc2ccccc2[nH]1` [Compound 5h, 2-{1-[(1h-Benzo[d]imidazol-2-yl)methyl]-5-methyl-1H-1,2,3-triazole-4-carbonyl}-N-phenylhydrazinecarboxamide], the IC50 with HepG-2 cells [1] (setting [9]) was determined as 42.1 ± 2.7 µM; in the data set with MCF-7 cells (setting [11]) it was 38 ± 2.6 µM; with HCT-116 cells (setting [13]), 54.8 ± 3 µM; in the data set on HeLa cells (setting [15]), 31.6 ± 2.3 µM. For the same molecule, in data set [2], the “Cytotoxic activity category, all four tested cancer cell lines” value is reported as “weak to moderate”.
With `COc1cc(/C=N/NC(=O)c2nnn(Cc3nc4ccccc4[nH]3)c2C)ccc1O` [Compound 6g, (E)-1-[(1H-Benzo[d]imidazol-2-yl)methyl]-N′-(4-hydroxy-3-methoxybenzylidene)-5-methyl-1H-1,2,3-triazole-4-carbohydrazide], the IC50 in the data set with HepG-2 cells [1] (setting [9]) is 10.9 ± 0.8 µM; in data set [3] it was 0.131 to 8.37 µM; in the data set with MCF-7 cells (setting [11]) it was 7.11 ± 0.5 µM; in data set [2] (setting [17]), 1 to 10 µM; in [2] (setting [18]), 3.34 to 10.9 µM; in the data set on HCT-116 cells (setting [13]) it was 3.34 ± 0.4 µM. For the same molecule, the IC50 on EGFR turned out to be 0.131 ± 0.005 µM; in the data set on WI-38 cell line, 43.3 ± 2.6 µM; in the data set with HeLa cells (setting [15]) it was 9.84 ± 0.7 µM; at Topo II [6], 8.37 ± 0.49 µM. Moreover, the “Cell cycle distribution G0-G1” value with HepG-2 cells [4] is listed as 38.91%. Further, the “Cell cycle distribution G2/M” value in the data set on HepG-2 cells [4] is 33.81%. For the same molecule, the “Cell cycle distribution Pre-G1” value in the data set with HepG-2 cells [4] is listed as 36.28%. The “Cell cycle distribution S” value with HepG-2 cells [4] worked out at 27.28%. Further, in the data set on HepG-2 cells [5], the “Apoptosis Early (Q4)” value is given as 11.02%. The “Apoptosis Late (Q2)” value in the data set on HepG-2 cells [5] stood at 19.85%. The “Apoptosis Total” value with HepG-2 cells [5] stood at 30.87%. Further, the “Necrosis (Q1)” value in the data set with HepG-2 cells [5] stood at 5.41%. In addition, at EGFR, the “Activity relative to Gefitinib against EGFR” value was roughly 40%. Besides, the “Activity relative to Sorafenib against VEGFR-2” value at VEGFR-2 is 21%.
For `Cc1c(C(=O)N/N=C/c2cccc(Br)c2)nnn1Cc1nc2ccccc2[nH]1` [Compound 6c, (E)-1-[(1H-Benzo[d]imidazol-2-yl)methyl]-N′-(3-bromobenzylidene)-5-methyl-1H-1,2,3-triazole-4-carbohydrazide], the IC50 in the data set with HepG-2 cells [1] (setting [9]) stood at 56.3 ± 3.2 µM; in the data set with MCF-7 cells (setting [11]), 44.8 ± 2.9 µM; in the data set with HCT-116 cells (setting [13]), 63.6 ± 3.3 µM; in the data set on HeLa cells (setting [15]), 48.8 ± 2.8 µM.
On to `COc1cccc2c1C(=O)c1c(O)c3c(c(O)c1C2=O)C[C@@](O)(C(=O)CO)C[C@@H]3O[C@H]1C[C@H](N)[C@H](O)[C@H](C)O1` [Dox, Doxorubicin, reference compound], for which the IC50 in the data set with HepG-2 cells [1] (setting [9]) is 4.5 ± 0.2 µM; with Topo IIB, 0.83 µM; in data set [2] (setting [18]), 4.17 to 5.57 µM.
Regarding `Cc1c(C(=O)N/N=C/c2cccc([N+](=O)[O-])c2)nnn1Cc1nc2ccccc2[nH]1` [Compound 6d, (E)-1-[(1H-Benzo[d]imidazol-2-yl)methyl]-5-methyl-N′-(3-nitrobenzylidene)-1H-1,2,3-triazole-4-carbohydrazide], the IC50 in the data set with HepG-2 cells [1] (setting [9]) came to 71.5 ± 3.6 µM; with MCF-7 cells (setting [11]), 48.2 ± 3 µM; in the data set on HCT-116 cells (setting [13]), 36.5 ± 2.7 µM; in the data set with HeLa cells (setting [15]) it was 52.2 ± 3.1 µM.
Regarding `Cc1c(C(=O)N/N=C/c2ccc(N(C)C)cc2)nnn1Cc1nc2ccccc2[nH]1` [Compound 6f, (E)-1-[(1H-Benzo[d]imidazol-2-yl)methyl]-N′-[4-(dimethylamino)benzylidene]-5-methyl-1H-1,2,3-triazole-4-carbohydrazide], the IC50 with HepG-2 cells [1] (setting [9]) is 18.3 ± 1.5 µM; in the data set with HepG-2 cells [1] (setting [10]), 11 to 20 µM; in the data set on MCF-7 cells (setting [11]) it was 14.7 ± 1.1 µM; in the data set with MCF-7 cells (setting [12]) it was 11 to 20 µM; in the data set on HCT-116 cells (setting [13]) it was 11.7 ± 0.9 µM; in the data set with HCT-116 cells (setting [14]), 11 to 20 µM. The results for the IC50 with HeLa cells (setting [15]) and with HeLa cells (setting [16]) were 22.8 ± 1.9 µM and 21 to 50 µM, respectively.
On to `CN1CCN(c2ccc3nc(-c4c(N)c5c(F)cccc5[nH]c4=O)[nH]c3c2)CC1` [Dovitinib], for which the IC50 in data set [7] was 13 µM.
For `COc1cc([C@@H]2c3cc4c(cc3[C@@H](O[C@@H]3O[C@@H]5CO[C@@H](C)O[C@H]5[C@H](O)[C@H]3O)[C@H]3COC(=O)[C@H]23)OCO4)cc(OC)c1O` [Etoposide], in the data set on Topo II [8], the IC50 is […].
As for `Cc1c(C(=O)N/N=C/c2ccc(Cl)cc2)nnn1Cc1nc2ccccc2[nH]1` [Compound 6a, (E)-1-[(1H-Benzo[d]imidazol-2-yl)methyl]-N′-(4-chlorobenzylidene)-5-methyl-1H-1,2,3-triazole-4-carbohydrazide], the IC50 was 47 ± 2.8 µM in the data set on HepG-2 cells [1] (setting [9]); 39.5 ± 2.6 µM in the data set on MCF-7 cells (setting [11]); 21 to 50 µM in data set [2] (setting [17]); 28.2 to 47 µM in data set [2] (setting [18]); 28.2 ± 2.5 µM in the data set on HCT-116 cells (setting [13]); 35.3 ± 2.5 µM with HeLa cells (setting [15]).
In the case of `Cc1c(C(=O)N/N=C/c2ccccc2)nnn1Cc1nc2ccccc2[nH]1` [Compound 6b, (E)-1-[(1H-Benzo[d]imidazol-2-yl)methyl]-N′-benzylidene-5-methyl-1H-1,2,3-triazole-4-carbohydrazide], the IC50 turned out to be 84.5 ± 4.1 µM with HepG-2 cells [1] (setting [9]), 57.6 ± 3.3 µM in the data set on MCF-7 cells (setting [11]), 75.1 ± 3.8 µM in the data set with HCT-116 cells (setting [13]) and 61.2 ± 3.4 µM in the data set on HeLa cells (setting [15]).
Take `Cc1c(C(=O)NNC(=S)Nc2ccccc2)nnn1Cc1nc2ccccc2[nH]1` [Compound 5d, 2-{1-[(1h-Benzo[d]imidazol-2-yl)methyl]-5-methyl-1H-1,2,3-triazole-4-carbonyl}-N-phenylhydrazinecarbothioamide]: the IC50 in the data set on HepG-2 cells [1] (setting [9]) is 57.2 ± 3.2 µM; in the data set on HepG-2 cells [1] (setting [10]) it was 51 to 100 µM; in the data set on MCF-7 cells (setting [11]) it was 30.8 ± 2.3 µM; with MCF-7 cells (setting [12]), 21 to 50 µM; in the data set on HCT-116 cells (setting [13]) it was 41.4 ± 2.8 µM; in the data set with HCT-116 cells (setting [14]) it was 21 to 50 µM. Also, the IC50 with HeLa cells (setting [15]) is 12.4 ± 0.9 µM; in the data set with HeLa cells (setting [16]), 11 to 20 µM.
For `COc1ccc(NC(=S)NNC(=O)c2nnn(Cc3nc4ccccc4[nH]3)c2C)cc1` [Compound 5g, 2-{1-[(1h-Benzo[d]imidazol-2-yl)methyl]-5-methyl-1H-1,2,3-triazole-4-carbonyl}-N-(4-methoxyphenyl)hydrazinecarbothioamide], the IC50 in the data set on HepG-2 cells [1] (setting [9]) came to 13.6 ± 1 µM; in the data set with MCF-7 cells (setting [11]), 9.39 ± 0.8 µM; in the data set with HCT-116 cells (setting [13]) it was 18.7 ± 1.5 µM; in the data set on HeLa cells (setting [15]), 8.7 ± 0.6 µM.
As for 2-phenylthiomethylbenzimidazole [VI], in the data set with Topo II [8], the IC50 is 17 µM.

Source of the values: PMC9858449 (Journal of Enzyme Inhibition and Medicinal Chemistry, 2023).
